Drawing on PubChem BioAssay AID330 (DTP/NCI, 2004), this text covers T/C for 26 compounds.

The assay deals with P388 leukemia ip, CD2F1 mice, survival T/C. Briefly: NCI In Vivo Anticancer Drug Screen. Data for tumor model P388 Leukemia (intraperitoneal) in CD2F1 (CDF1) mice. As to conditions: endpoint: median survival time, higher = longer survival. The gist of the method:
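Mice carrying the transplanted tumor received test compound or vehicle. Survival was recorded in each group, and the value is the treated-group measurement divided by that of the vehicle-treated control group.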

Where [1] appears, read: dose: 100.0 mg/kg/injection, schedule: Q01DX009 (ip), vehicle: saline with Tween-80.
Setting [2] is: dose: 200.0 mg/kg/injection, schedule: Q01DX009 (ip), vehicle: saline with Tween-80.
Where [3] appears, read: dose: 100.0 mg/kg/injection, schedule: Q04DX003 (ip), vehicle: saline with Tween-80.
Setting [4] is: dose: 200.0 mg/kg/injection, schedule: Q04DX003 (ip), vehicle: saline with Tween-80.
Where [5] appears, read: dose: 50.0 mg/kg/injection, schedule: Q01DX005 (ip), vehicle: Klucel (hydroxypropylcellulose) (HPC).
Setting [6] is: dose: 100.0 mg/kg/injection, schedule: Q01DX005 (ip), vehicle: Klucel (hydroxypropylcellulose) (HPC).
The mark [7] stands for this setting: dose: 200.0 mg/kg/injection, schedule: Q01DX005 (ip), vehicle: Klucel (hydroxypropylcellulose) (HPC).
Setting [8] is: dose: 100.0 mg/kg/injection, schedule: Q04DX002 (ip), vehicle: saline with Tween-80.
The mark [9] stands for this setting: dose: 200.0 mg/kg/injection, schedule: Q04DX002 (ip), vehicle: saline with Tween-80.
[10] abbreviates: dose: 50.0 mg/kg/injection, schedule: Q01DX009 (ip), vehicle: saline with Tween-80.
Where [11] appears, read: dose: 60.0 mg/kg/injection, schedule: Q01DX005 (ip), vehicle: saline with Tween-80.
Where [12] appears, read: dose: 120.0 mg/kg/injection, schedule: Q01DX005 (ip), vehicle: saline with Tween-80.
Setting [13] is: dose: 240.0 mg/kg/injection, schedule: Q01DX005 (ip), vehicle: saline with Tween-80.

The structures appear in SMILES notation. Where “and” joins values, the source holds several entries; their conditions need not be identical. Identical values can stand only once. Toxic doses and inconclusive results are not listed.

`ClCCCCN(CCN(CCCCCl)c1ccccc1)c1ccccc1`: the T/C was 100 % of control (dose: 12.5 mg/kg/injection, schedule: Q04DX002 (ip), vehicle: saline) and 101 % of control (dose: 25.0 mg/kg/injection, schedule: Q04DX002 (ip), vehicle: saline).
Take `COc1nc2c(=O)[nH]c(N)nc2n1C1OC(CO)C(O)C1O` (configuration not stated): the T/C by setting is: under setting [1], 98 % of control; under setting [2], 113 % of control; (dose: 400.0 mg/kg/injection, schedule: Q01DX009 (ip), vehicle: saline with Tween-80) 116 % of control.
With `CC(c1ccccc1)C1(C)NC(=O)NC1=O` (configuration not stated), the T/C was 97 % of control under setting [3] and 101 % of control under setting [4].
As to `O=C(O)c1cnccc1C(=O)c1ccccc1`, the T/C is 101 % of control under setting [5], 101 % of control under setting [6] and 92 % of control under setting [7].
As for `COc1ccc2c3c1OC1c4[nH]ncc4C[C@H]4[C@@H](C2)N(C)CC[C@]314` (some centres not stated), the T/C was 108 % of control under setting [8] and 99 % of control under setting [9].
As to `CCCCCCCCC#CC(=O)O`, the T/C was 94 % of control under setting [10], 95 % of control under setting [1] and 86 % of control under setting [2].
For `CC(=O)OCC1OC(n2ccc3c(=O)n(C)c(=O)[nH]c32)C(OC(C)=O)C(OC(C)=O)C1OC(C)=O` (configuration not stated), the T/C was 92 % of control (dose: 100.0 mg/kg/injection, schedule: Q01DX001 (ip), vehicle: saline with Tween-80); 105 % of control (dose: 200.0 mg/kg/injection, schedule: Q01DX001 (ip), vehicle: saline with Tween-80); 108 % of control (dose: 400.0 mg/kg/injection, schedule: Q01DX001 (ip), vehicle: saline with Tween-80).
For the compound `COc1cc(OC2OC(CO)C(O)C(O)C2O)ccc1/C=C\C(=O)c1ccc(OC2OC(CO)C(O)C(O)C2O)cc1` (configuration not stated), the T/C reads like this: under setting [8], 91 % of control; under setting [9], 96 % of control; (dose: 400.0 mg/kg/injection, schedule: Q04DX002 (ip), vehicle: saline with Tween-80) 96 % of control.
In the case of `CCCCNC(=O)C1CC2c3cccc4c3c(cn4C)CC2N(C)C1` (configuration not stated), the T/C was 102 % of control (dose: 25.0 mg/kg/injection, schedule: Q01DX001 (ip), vehicle: saline) and 105 % of control (dose: 50.0 mg/kg/injection, schedule: Q01DX001 (ip), vehicle: saline).
Consider `CCOC(=O)c1cc(N)c(N2CCCC2)cc1Cl`, for which the T/C is, setting by setting: (dose: 90.0 mg/kg/injection, schedule: Q04DX003 (ip), vehicle: saline with Tween-80) 100 % of control; (dose: 133.0 mg/kg/injection, schedule: Q04DX003 (ip), vehicle: saline with Tween-80) 100 % of control; under setting [4], 90 % of control; (dose: 300.0 mg/kg/injection, schedule: Q04DX003 (ip), vehicle: saline with Tween-80) 95 % of control.
On to `COc1cc(/C=C2\N=C(c3cc(OC)c(OC)c(OC)c3)OC2=O)ccc1O`, for which the T/C by setting is: under setting [10], 91 % of control; under setting [1], 95 % of control; under setting [2], 105 % of control.
On to `C=CS(=O)(=O)OCCCl`, for which the T/C was 108 % of control and 109 % of control and 111 % of control (dose: 6.25 mg/kg/injection, schedule: Q01DX009 (ip), vehicle: saline with Tween-80); 117 % of control (dose: 18.75 mg/kg/injection, schedule: Q01DX009 (ip), vehicle: saline with Tween-80).
On to `CCOc1c(Br)cc(/C=C(\C)[N+](=O)[O-])cc1OC`, for which the T/C under setting [11] was 112 % of control and the T/C under setting [12] is 106 % of control.
Consider `COC(=O)/C=C/c1c(=O)c(C(=O)OC)cn2cnc3nc[nH]c3c12`, for which the T/C reads like this: under setting [3], 97 % of control; under setting [4], 93 % of control; (dose: 400.0 mg/kg/injection, schedule: Q04DX003 (ip), vehicle: saline with Tween-80) 98 % of control.
`C=C(C)C1CC=C(CCCC(C)COC2OCC(OC(=O)/C(C)=C/CCC3=CCC(C(=C)C)CC3O)C(O)C2O)CC1` (configuration not stated): the T/C reads like this: (dose: 10.75 mg/kg/injection, schedule: Q01DX005 (ip), vehicle: Klucel (hydroxypropylcellulose) (HPC)) 103 % of control; (dose: 21.5 mg/kg/injection, schedule: Q01DX005 (ip), vehicle: Klucel (hydroxypropylcellulose) (HPC)) 114 % of control; (dose: 43.0 mg/kg/injection, schedule: Q01DX005 (ip), vehicle: Klucel (hydroxypropylcellulose) (HPC)) 119 % of control.
In the case of `COc1cc(C2c3cc4c(cc3OC(OC(C)=O)C2C)OCO4)cc(OC)c1OC` (configuration not stated), the T/C was 96 % of control under setting [11], 94 % of control under setting [12] and 105 % of control under setting [13].
Regarding `COc1ccc2c(c1)OC(C)(C)C(c1ccccc1)=C2c1ccc(OCCBr)cc1`, the T/C is 101 % of control under setting [5], 98 % of control under setting [6] and 100 % of control under setting [7].
For `COc1ccc(-c2nn(-c3ccccc3)cc2Oc2ccccc2O)cc1`, the T/C runs as follows: under setting [11], 104 % of control; under setting [12], 102 % of control; under setting [13], 96 % of control.
For the compound `O=[N+]([O-])c1ccc(C2=Nc3ccccc3N=C(c3ccccc3O)C2)cc1`, the T/C is, setting by setting: (dose: 0.93 mg/kg/injection, schedule: Q01DX005 (ip), vehicle: saline with Tween-80) 100 % of control; (dose: 1.87 mg/kg/injection, schedule: Q01DX005 (ip), vehicle: saline with Tween-80) 113 % of control; (dose: 3.75 mg/kg/injection, schedule: Q01DX005 (ip), vehicle: saline with Tween-80) 91 % of control and 94 % of control; (dose: 15.0 mg/kg/injection, schedule: Q01DX005 (ip), vehicle: saline with Tween-80) 91 % of control; under setting [13], 90 % of control.
Turning to `O=C(O)CSCC(=O)Nc1ccccc1Cl`, the T/C by setting is: under setting [11], 95 % of control; under setting [12], 91 % of control; under setting [13], 100 % of control.
With `Nc1nn(-c2ccc(Br)cc2)c2cccc[n+]12`, the T/C reads like this: (dose: 12.5 mg/kg/injection, schedule: Q01DX009 (ip), vehicle: saline with Tween-80) 105 % of control; (dose: 25.0 mg/kg/injection, schedule: Q01DX009 (ip), vehicle: other) 115 % of control; (dose: 25.0 mg/kg/injection, schedule: Q01DX009 (ip), vehicle: saline with Tween-80) 100 % of control; (dose: 50.0 mg/kg/injection, schedule: Q01DX009 (ip), vehicle: other) 97 % of control; under setting [10], 100 % of control and 97 % of control.
Turning to `CNc1cc[nH]c(=O)c1NC(C)=O`, the T/C is, setting by setting: (dose: 60.0 mg/kg/injection, schedule: Q01DX005 (ip), vehicle: saline) 100 % of control; (dose: 120.0 mg/kg/injection, schedule: Q01DX005 (ip), vehicle: saline) 101 % of control; (dose: 240.0 mg/kg/injection, schedule: Q01DX005 (ip), vehicle: saline) 106 % of control.
Consider `O=C(O)c1c(Cl)n(Cc2cc(Cl)ccc2Cl)c2ccccc12`, for which the T/C is 95 % of control (dose: 60.0 mg/kg/injection, schedule: Q01DX005 (ip), vehicle: Klucel (hydroxypropylcellulose) (HPC)) and 88 % of control (dose: 120.0 mg/kg/injection, schedule: Q01DX005 (ip), vehicle: Klucel (hydroxypropylcellulose) (HPC)).
Take `Cc1ccc([N+](=O)[O-])cc1NC(=O)Oc1ccccc1`: the T/C reads like this: (dose: 100.0 mg/kg/injection, schedule: Q01DX009 (ip), vehicle: other) 90 % of control; (dose: 200.0 mg/kg/injection, schedule: Q01DX009 (ip), vehicle: other) 110 % of control; (dose: 400.0 mg/kg/injection, schedule: Q01DX009 (ip), vehicle: other) 100 % of control.
Consider `[CH3][Sn]([CH3])([Cl])[c]1cc[c]([Sn]([CH3])([CH3])[Cl])cc1`, for which the T/C runs as follows: (dose: 0.19 mg/kg/injection, schedule: Q01DX005 (ip), vehicle: suspension in saline) 122 % of control; (dose: 0.39 mg/kg/injection, schedule: Q01DX005 (ip), vehicle: suspension in saline) 115 % of control; (dose: 0.79 mg/kg/injection, schedule: Q01DX005 (ip), vehicle: saline) 160 % of control; (dose: 3.12 mg/kg/injection, schedule: Q01DX005 (ip), vehicle: suspension in saline) 154 % of control.
Consider `OCCN1CCSC1=S`, for which the T/C runs as follows: under setting [10], 95 % of control; under setting [1], 90 % of control; under setting [2], 100 % of control.
